Reference: patent US11648254B2 (Kumquat Biosciences Inc., priority 2021, dated 2023)
Read-outs that look alike come from different tables or passages of the source.

Key:
[1] = tested on: MIA PaCa-2 cells (K-Ras G12C); assay: Ras-SOS cellular growth inhibition assay (CellTiter-Glo, 3D); format: cell-based; conditions: Homo sapiens
Description: MIA PaCa-2 (ATCC CRL-1420) and NCI-H1792 (ATCC CRL-5895) cell lines comprise a G12C mutation can be used to assess Ras cellular signaling in vitro, e.g., in response to a subject compound of the present disclosure. […] Cell culture medium (comprising, for example, MIA PaCa-2 cells) is prepared with DMEM/Ham's F12 (e.g., with stable Glutamine, 10% FCS, and 2.5% Horse Serum. NCI-H1792 culture medium is prepared with RPMI 1640 (e.g., with stable Glutamine) and 10% FCS. A CellTiter-Glo (CTG) luminescent based assay (Promega) is used to assess growth of the cells, as a measurement of the ability of the compounds herein to inhibit Ras signaling in the cells. The cells (e.g., 800-1200 per well) are seeded in their respective culture medium in standard tissue culture-treated ultra-low attachment surface 96-well format plates (Corning Costar #3474). The day after plating, cells are treated with a dilution series (e.g., a 9 point 3-fold dilution series) of the compounds herein (e.g., approximately 125 μl final volume per well). Cell viability can be monitored (e.g., approximately 5 days later) according to the manufacturer's recommended instructions, where the CellTiter-Glo reagent is added (e.g., approximately 65 μl), vigorously mixed, covered, and placed on a plate shaker (e.g., approximately for 20 min) to ensure sufficient cell lysis prior to assessment of luminescent signal. The IC50 values are determined using the four-parameter fit. The resulting IC50 value is a measurement of the ability of the compounds herein to reduce cell growth of Ras-driven cells as representative tumor cells.

SOS1 = SOS1 (Homo sapiens (Human), UniProt Q07889); assay: Ras-SOS interaction assay (HTRF); format: biochemical
Sequence of SOS1 (Q07889 564-1049): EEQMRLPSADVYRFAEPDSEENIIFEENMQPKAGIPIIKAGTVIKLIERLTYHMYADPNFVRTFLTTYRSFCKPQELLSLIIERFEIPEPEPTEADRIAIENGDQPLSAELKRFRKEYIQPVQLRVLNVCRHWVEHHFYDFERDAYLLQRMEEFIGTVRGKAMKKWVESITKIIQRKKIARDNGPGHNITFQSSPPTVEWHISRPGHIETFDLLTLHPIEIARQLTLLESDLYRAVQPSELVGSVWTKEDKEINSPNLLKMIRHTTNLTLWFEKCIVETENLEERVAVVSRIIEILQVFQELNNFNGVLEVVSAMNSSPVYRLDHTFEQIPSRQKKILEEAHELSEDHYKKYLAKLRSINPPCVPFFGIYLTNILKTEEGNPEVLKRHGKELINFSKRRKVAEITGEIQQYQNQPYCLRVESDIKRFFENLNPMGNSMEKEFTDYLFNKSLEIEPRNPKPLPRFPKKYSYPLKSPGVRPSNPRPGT

[2] = tested on: NCI-H1975 cells (EGFR T790M L858R); assay: EGFR-SOS cellular inhibition assay (CellTiter-Glo, 3D); format: cell-based; conditions: Homo sapiens
[3] = MIA PaCa-2, 120 h, MIA PaCa-2, 3D proliferation, about 5 days, read-out: Bio-Cell-Prolif-3D (MiaPaca2 IC50)
[4] = MIA PaCa-2, MIA PaCa-2, read-out: IC50 in inhibiting MIA PaCa-2 cell growth
[5] = K-RasG13D utilized, read-out: IC50 inhibition of SOS
[6] = K-RasG13D, read-out: IC50 value against SOS1
[7] = 120 h, NCI-H1975, 3D proliferation, about 5 days, read-out: Bio-Cell-Prolif-3D (H1975 IC50)
[8] = NCI-H1975, EGFR T790M L858R, read-out: IC50 in inhibiting growth of NCI-H1975 cell line

IC50 [1, 3]	IC50 [1, 4]	IC50 (SOS1; [5])	IC50 (SOS1; [6])	IC50 [2, 7]	IC50 [2, 8]	SMILES
≤ 1000 nM	< 500 nM	< 100 nM	< 50 nM	≤ 1000 nM	< 500 nM	Cc1nc(N[C@H](C)c2cccc(C(F)(F)C(C)O)c2F)c2cc(C3(C#N)CC3)c(Cl)nc2n1 (stereo in doubt) [Compound 333, 1-(7-chloro-4-(((R)-1-(3-((S)-1,1-difluoro-2-hydroxypropyl)-2-fluorophenyl)ethyl)amino)-2-methylpyrido[2,3-d]pyrimidin-6-yl)cyclopropane-1-carbonitrile]
≤ 1000 nM		< 100 nM		≤ 1000 nM		COc1nc2nc(C)nc(N[C@H](C)c3cccc(C(F)F)c3F)c2cc1C1(C#N)CC1 [Compound 101, 1-(4-((R)-1-(2-fluoro-3-(difluoromethyl)phenyl)ethylamino)-7-methoxy-2-methylpyrido[2,3-d]pyrimidin-6-yl)cyclopropanecarbonitrile]
≤ 1000 nM	< 500 nM	< 100 nM	< 50 nM	≤ 1000 nM	< 500 nM	Cc1nc(N[C@H](C)c2cccc(C(F)F)c2F)c2cc(C3CCN(C(C)C)CC3)c(Cl)nc2n1 [Compound 104, (R)-7-chloro-N-(1-(3-(difluoromethyl)-2-fluorophenyl)ethyl)-6-(1-isopropylpiperidin-4-yl)-2-methylpyrido[2,3-d]pyrimidin-4-amine]
≤ 1000 nM	< 500 nM	< 100 nM	< 50 nM	≤ 1000 nM	< 500 nM	COc1nc2nc(C)nc(N[C@H](C)c3cccc(C(F)F)c3F)c2cc1CN1CCN(C(C)C)CC1 [Compound 105, (R)—N-(1-(3-(difluoromethyl)-2-fluorophenyl)ethyl)-6-((4-isopropylpiperazin-1-yl)methyl)-7-methoxy-2-methylpyrido[2,3-d]pyrimidin-4-amine]
≤ 1000 nM		< 100 nM		≤ 1000 nM		COc1nc2nc(C)nc(N[C@H](C)c3cccc(C(F)F)c3F)c2cc1N1CCNCC1 [Compound 110, (R)-N-(1-(3-(difluoromethyl)-2-fluorophenyl)ethyl)-7-methoxy-2-methyl-6-(piperazin-1-yl)pyrido[2,3-d]pyrimidin-4-amine]
≤ 1000 nM	< 500 nM	< 100 nM	< 50 nM	≤ 1000 nM	< 500 nM	COc1nc2nc(C)nc(N[C@H](C)c3cccc(C(F)F)c3F)c2cc1C1CCN(C(C)C)CC1 [Compound 112, (R)-N-(1-(3-(difluoromethyl)-2-fluorophenyl)ethyl)-6-(1-isopropylpiperidin-4-yl)-7-methoxy-2-methylpyrido[2,3-d]pyrimidin-4-amine]
≤ 1000 nM	< 500 nM	< 100 nM	< 50 nM	≤ 1000 nM	< 500 nM	COc1nc2nc(C)nc(N[C@H](C)c3cccc(C(F)F)c3F)c2cc1C1CCN(C)CC1 [Compound 113, (R)-N-(1-(3-(difluoromethyl)-2-fluorophenyl)ethyl)-7-methoxy-2-methyl-6-(1-methylpiperidin-4-yl)pyrido[2,3-d]pyrimidin-4-amine]
≤ 1000 nM		< 100 nM	< 50 nM	≤ 1000 nM		COc1nc2nc(C)nc(N[C@H](C)c3cccc(C(F)F)c3F)c2cc1S(=O)(=O)N1CCNCC1 [Compound 114, (R)-N-(1-(3-(difluoromethyl)-2-fluorophenyl)ethyl)-7-methoxy-2-methyl-6-(piperazin-1-ylsulfonyl)pyrido[2,3-d]pyrimidin-4-amine]
≤ 1000 nM	< 500 nM	< 100 nM	< 50 nM	≤ 1000 nM		CCN1CCN(c2cc3c(N[C@H](C)c4cccc(C(F)F)c4F)nc(C)nc3nc2OC)CC1 [Compound 115, (R)-N-(1-(3-(difluoromethyl)-2-fluorophenyl)ethyl)-6-(4-ethylpiperazin-1-yl)-7-methoxy-2-methylpyrido[2,3-d]pyrimidin-4-amine]
≤ 1000 nM			< 50 nM	≤ 1000 nM		COc1nc2nc(C)nc(N[C@H](C)c3cccc(C(F)F)c3F)c2cc1C1CCN(C(=O)NC2COC2)CC1 [Compound 116, (R)-4-(4-((1-(3-(difluoromethyl)-2-fluorophenyl)ethyl)amino)-7-methoxy-2-methylpyrido[2,3-d]pyrimidin-6-yl)-N-(oxetan-3-yl)piperidine-1-carboxamide]
≤ 1000 nM	< 500 nM	< 100 nM	< 50 nM	≤ 1000 nM	< 500 nM	CCN1CCC(c2cc3c(N[C@H](C)c4cccc(C(F)F)c4F)nc(C)nc3nc2OC)CC1 [Compound 119, (R)-N-(1-(3-(difluoromethyl)-2-fluorophenyl)ethyl)-6-(1-ethylpiperidin-4-yl)-7-methoxy-2-methylpyrido[2,3-d]pyrimidin-4-amine]
≤ 1000 nM	< 500 nM		< 50 nM	≤ 1000 nM		COc1nc2nc(C)nc(N[C@H](C)c3cccc(C(F)F)c3F)c2cc1N1CCN(C)CC1 [Compound 123, (R)-N-(1-(3-(difluoromethyl)-2-fluorophenyl)ethyl)-7-methoxy-2-methyl-6-(4-methylpiperazin-1-yl)pyrido[2,3-d] pyrimidin-4-amine]
≤ 1000 nM	< 500 nM		< 50 nM	≤ 1000 nM	< 500 nM	COc1nc2nc(C)nc(N[C@H](C)c3cccc(C(F)F)c3F)c2cc1[C@H]1C[C@@H](NC(=O)C2COC2)C1 [Compound 125, N-((1S,3s)-3-(4-(((R)-1-(3-(difluoromethyl)-2-fluorophenyl)ethyl)amino)-7-methoxy-2-methylpyrido[2,3-d]pyrimidin-6-yl)cyclobutyl)oxetane-3-carboxamide]
≤ 1000 nM		< 100 nM	< 50 nM	≤ 1000 nM	< 500 nM	COc1nc2nc(C)nc(N[C@H](C)c3cccc(C(F)F)c3F)c2cc1C1(C#N)CCS(=O)(=O)CC1 [Compound 126, (R)-4-(4-((1-(3-(difluoromethyl)-2-fluorophenyl)ethyl)amino)-7-methoxy-2-methylpyrido[2,3-d]pyrimidin-6-yl)tetrahydro-2H-thiopyran-4-carbonitrile 1,1-dioxide]
≤ 1000 nM	< 500 nM	< 100 nM	< 50 nM	≤ 1000 nM	< 500 nM	COc1nc2nc(C)nc(N[C@H](C)c3cccc(C(F)F)c3F)c2cc1C1=CCS(=O)(=O)CC1 [Compound 127, (R)-4-(4-((1-(3-(difluoromethyl)-2-fluorophenyl)ethyl)amino)-7-methoxy-2-methylpyrido[2,3-d]pyrimidin-6-yl)-3,6-dihydro-2H-thiopyran 1,1-dioxide]
≤ 1000 nM		< 100 nM	< 50 nM	1000 to 10000 nM		CNCCN1CCC(c2cc3c(N[C@H](C)c4cccc(C(F)F)c4F)nc(C)nc3nc2OC)CC1 [Compound 129, (R)-N-(1-(3-(difluoromethyl)-2-fluorophenyl)ethyl)-7-methoxy-2-methyl-6-(1-(2-(methyl-12-azaneyl)ethyl)piperidin-4-yl)pyrido[2,3-d]pyrimidin-4-amine]
≤ 1000 nM	< 500 nM	< 100 nM	< 50 nM	≤ 1000 nM	< 500 nM	COc1nc2nc(C)nc(N[C@H](C)c3cccc(C(F)F)c3F)c2cc1C1CCN(CCO)CC1 [Compound 130, (R)-2-(4-(4-((1-(3-(difluoromethyl)-2-fluorophenyl)ethyl)amino)-7-methoxy-2-methylpyrido[2,3-d]pyrimidin-6-yl)piperidin-1-yl)ethan-1-ol]

SMILES	IC50 [1, 3]	IC50 [1, 4]	IC50 (SOS1; [5])	IC50 (SOS1; [6])	IC50 [2, 7]	IC50 [2, 8]
COc1nc2nc(C)nc(N[C@H](C)c3cccc(C(F)F)c3F)c2cc1C1(C#N)CCN(C(C)C)CC1 [Compound 117, (R)-4-(4-((1-(3-(difluoromethyl)-2-fluorophenyl)ethyl)amino)-7-methoxy-2-methylpyrido[2,3-d]pyrimidin-6-yl)-1-isopropylpiperidine-4-carbonitrile]	≤ 1000 nM		< 100 nM	< 50 nM	≤ 1000 nM	< 500 nM
COc1nc2nc(C)nc(N[C@H](C)c3cccc(C(F)F)c3F)c2cc1C1(C#N)CCN(C)CC1 [Compound 128, (R)-4-(4-((1-(3-(difluoromethyl)-2-fluorophenyl)ethyl)amino)-7-methoxy-2-methylpyrido[2,3-d]pyrimidin-6-yl)-1-methylpiperidine-4-carbonitrile]	≤ 1000 nM	< 500 nM	< 100 nM	< 50 nM	≤ 1000 nM	
